Data published in US7875618B2, “Substituted imidazo[1,5-a]quinoxalines useful as inhibitors of phosphodiesterase 10 for the treatment of neurological and other disorders” (Wyeth, priority 2007, dated 2011).

Target: T1, human recombinant PDE10A (Homo sapiens, UniProt Q9Y233)
T1 construct: made in house; host or cells: SF21 insect cells (baculovirus)
Test: Inhibition of human recombinant PDE10A ([3H]-cAMP SPA, Method B)
Format: biochemical
Conditions: read-out: PDE10 inhibition IC50 [nM] PDE10A human
Protocol: The gene was than inserted into a baculovirus vector, ligated with the baculovirus DNA. The enzyme-protein was expressed in SF21-cells. The enzyme was isolated from these cells by harvesting the cells by a centrifugation at 200 g to collect the cells. The cells were resuspended in 50 mM Tris-HCl/5 mM MgCl2 buffer (pH=7.4) and lysed by a sonication of the cells. The cytosolic PDE10A was obtained by a centrifugation at 48000 g for 1 h in the supernatant and stored at −70° C. PDE10 activity was determined in a one step procedure in microtiterplates. […] Nonspecific activity was tested without the enzyme. The reaction was initiated by addition of the substrate solution and was carried out at 37° C. for 30 minutes. Enzymatic activity was stopped by addition of 25 μl YSi-SPA-beads (Amersham-Pharmacia). One hour later the mixture was measured in a liquid scintillation counter for microtiterplates (Microbeta Trilux). To pipette the incubation mixture a robot Biomek (Fa. Beckman) is used. […] For determination of IC50 values the Hill-plot, 2-parameter-model, was used.

T1 sequence (Q9Y233 1-779 isoform Q9Y233-1): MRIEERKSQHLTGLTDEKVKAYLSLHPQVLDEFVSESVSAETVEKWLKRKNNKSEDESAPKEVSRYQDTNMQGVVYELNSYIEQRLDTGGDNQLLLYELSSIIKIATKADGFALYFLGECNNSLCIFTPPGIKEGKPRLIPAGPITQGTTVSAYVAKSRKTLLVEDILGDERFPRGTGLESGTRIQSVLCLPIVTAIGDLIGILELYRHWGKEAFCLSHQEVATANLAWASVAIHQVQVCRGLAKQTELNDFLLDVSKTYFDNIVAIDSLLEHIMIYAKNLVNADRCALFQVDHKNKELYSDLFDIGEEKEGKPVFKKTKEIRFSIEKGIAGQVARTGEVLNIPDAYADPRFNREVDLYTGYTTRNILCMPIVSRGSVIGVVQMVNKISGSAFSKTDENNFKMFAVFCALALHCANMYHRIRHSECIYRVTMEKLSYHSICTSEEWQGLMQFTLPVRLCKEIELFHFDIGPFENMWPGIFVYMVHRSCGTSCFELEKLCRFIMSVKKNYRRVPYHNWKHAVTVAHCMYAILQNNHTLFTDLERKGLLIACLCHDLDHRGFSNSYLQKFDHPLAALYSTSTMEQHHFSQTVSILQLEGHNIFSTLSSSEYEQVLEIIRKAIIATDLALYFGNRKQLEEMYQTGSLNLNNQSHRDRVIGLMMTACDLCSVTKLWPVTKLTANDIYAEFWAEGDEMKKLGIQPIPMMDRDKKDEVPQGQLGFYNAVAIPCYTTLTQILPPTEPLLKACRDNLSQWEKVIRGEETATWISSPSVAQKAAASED

| SMILES | IC50 [nM] |
| --- | --- |
| COc1cc2nc(C)c3c(C)nc(-c4cnccc4C)n3c2cc1Cl [Example 128, 8-chloro-7-methoxy-3,4-dimethyl-1-(4-methylpyridin-3-yl)imidazo[1,5-a]quinoxaline] | 10 to 100 |
| COc1cc(F)c2nc(C)c3c(C)nc(-c4ccccc4Cl)n3c2c1 [Example 77, 1-(2-chlorophenyl)-6-fluoro-8-methoxy-3,4-dimethylimidazo[1,5-a]quinoxaline] | ≤ 10 |
| Cc1ccccc1-c1nc(C)c2c(C)nc3ccc(C(F)(F)F)cc3n12 [Example 125, 3,4-dimethyl-1-(2-methylphenyl)-8-(trifluoromethyl)imidazo[1,5-a]quinoxaline] | 10 to 100 |
| COc1ccc2nc(C)c3c(C)nc(-c4ccc(Cl)cc4C(F)(F)F)n3c2c1 [Example 106, 1-[4-chloro-2-(trifluoromethyl)phenyl]-8-methoxy-3,4-dimethylimidazo[1,5-a]quinoxaline] | 10 to 100 |

The remaining lines, values ahead:

| IC50 [nM] | SMILES |
| --- | --- |
| 10 to 100 | COc1ccc2nc(C)c3c(C)nc(-c4cnccc4OC)n3c2c1 [Example 110, 8-methoxy-1-(4-methoxypyridin-3-yl)-3,4-dimethylimidazo[1,5-a]quinoxaline] |
| ≤ 10 | Cc1nc(-c2cccc(C(N)=O)c2)n2c1c(C)nc1ccc(OC(F)(F)F)cc12 [Example 120, 3-[3,4-dimethyl-8-(trifluoromethoxy)imidazo[1,5-a]quinoxalin-1-yl]benzamide] |
| ≤ 10 | COc1ccc2nc(C)c3c(C)nc(-c4cccc(C(N)=O)c4)n3c2c1 [Example 112, 3-(8-methoxy-3,4-dimethylimidazo[1,5-a]quinoxalin-1-yl)benzamide] |
| ≤ 10 | COc1ccc2nc(C)c3c(C)nc(-c4cc(Cl)ccc4C)n3c2c1 [Example 107, 1-(5-chloro-2-methylphenyl)-8-methoxy-3,4-dimethylimidazo[1,5-a]quinoxaline] |
| ≤ 10 | Cc1nc(-c2cccc(C(N)=O)c2)n2c1c(C)nc1ccc(Cl)cc12 [Example 64, 3-(8-chloro-3,4-dimethylimidazo[1,5-a]quinoxalin-1-yl)benzamide] |
| ≤ 10 | COc1ccc2nc(C)c3c(C)nc(-c4ccc(F)cc4Cl)n3c2c1 [Example 105, 1-(2-chloro-4-fluorophenyl)-8-methoxy-3,4-dimethylimidazo[1,5-a]quinoxaline] |
